Assay [1] relates to P. falciparum sphingomyelin synthase. The assay can be described thus: Inhibition of plasmodial sphingomyelin biosynthesis in intact infected erythrocytes (C6-NBD-ceramide to C6-NBD-sphingomyelin). The format is cell-based, Plasmodium falciparum. The note with it: for effect on sphingomyelin synthase enzyme activity: 5 μM compound (Example 3); for [%] inhibition of sphingomyelin biosynthetic activity: 5 μM compound. The method, then: 1×10^8 infected cells 24 h after invasion were washed serum-free in RPMI 1640 and preincubated for thirty min at 37° C. in 1 ml of RPMI 1640 containing 0-5 μM or 0-500 μM of PPMP. (C6-NBD-ceramide (N-[7-(4-nitrobenzo-2-oxa-1,3-diazide)]-6-aminocaproyl-D-erythro-sphingosine) was added to each sample at a final concentration of 5 μM, the samples further incubated for 30 min at 37° C. and cellular lipids extracted. C6-NBD-sphingomyelin was resolved by TLC and quantitated by fluorescence spectrophotometry as described previously. Bligh, E. G. and Dyer, W. Y. (1959) A rapid method for total lipid extraction and purification., Can. J. Biochem. Physiol. 37: 911-917. Haldar, K., Uyetake, L., Ahori, N., Elmendorf, H. G. and Lu, W-1. (1991) The accumulation and metabolism of a fluorescent ceramide derivative in Plasmodium falciparum-infected erythrocytes., Mo. Biochem. Parasitol. 49: 143-156. Elmendorf, H. G. and Haldar, K. (1994) Plasmodium falciparum exports the Golgi marker sphingomyelin synthase into a tubovesicular network in the cytoplasm of mature erythrocytes., J. Cell Biol. 124: 449-462. Each value obtained represented the mean of triplicate determinations from five experiments. The arrow bars indicate the standard deviations. The results are depicted in FIG. 1.
(§1) P. falciparum strain FCB was used for all experiments and cultured in vitro in according to a modification of the method of Trager and Jensen left off. Trager, W. and Jensen, J. B. (1976) Human malaria in continuous culture., Science (Wash. D.C.) 193: 673-675 Haldar, K., Ferguson, M. A. J. and Cross, G. A. M. (1985) Acylation of a Plasmodium falciparum merozoite surface antigen via sn-1, 2-diacyl glycerol. J. Biol. Chem. 260; 4969-4974 The culture medium contained RPMI 1640 supplemented with 25 Mm hepes, Ph 7.4/[…]/92 μM hypoxanthine/0.18% sodium bicarbonate/25 μM gentamicin and 10% AB^+ human sera. The parasites were grown in A^+ erythrocytes at 2.5-5% hematocrit. Parasite cultures were synchronized by separation of the early and late stages on a Percoll gradient. The subsequent reincubation of these stages in culture were used to obtain cells 12-24h in the life cycle. Inhibition of sphingomyelin biosynthetic activity using 5 μM of the various compounds was carried out as described in Example 1. 5 μM of the various compounds were added to 0-12 h rings in the culture medium and cells were examined by Giemsa staining after 24 h.

Assay [2] shares this test system. The assay can be described thus: Inhibition of sphingomyelin biosynthesis in hypotonically lysed infected erythrocytes and fractions. The format is biochemical, Plasmodium falciparum. The method, then: Cells were washed serum-free in PBS and intact cells were incubated in PBS. Cells were lysed in 10 volumes of hypotonic buffer. Pellets and supernatants were separated by centrifugation at 10^4 ×G for 10 min at 4° C. Inhibition of sphingomyelin biosynthetic activity was carried out as described in Example 1. Glutamate dehydrogenase, a parasite cytosolic activity, was assayed using 10 μM alpha-ketoglutarate and 0.1 μM NADPH for 1 h at 37° C. by measuring the absorption at 340 nm in a spectrophotometer. The following table indicates the results

The next assay concerns P. falciparum. The assay can be described thus: Intraerythrocytic development in long term culture, parasitemia over consecutive cycles. The class given is cell-based, Plasmodium falciparum. How it is done: Synchronized cultures 12 h after invasion were subjected to different concentrations of PPMP. Parasitemias of drug-treated cultures were determined at various time points during two intraerythrocytic cycles and compared to cells grown in the absence of drug.
The effect of the single lipid analogs to inhibit parasite development in long term culture in consecutive cycles of the parasite growth were investigated. The studies were initiated with synchronized, young rings (0-12 h) at 10% parasitemia. In order to ensure healthy growth of the malaria parasite in vitro, the parasitemias of the cultures are not allowed to exceed 10%. Yet under normal conditions a 3-6 fold increase in parasitemias is detected with each round of invasion: thus for each new cycle, the cultures were diluted 4-fold into fresh erythrocytes in the absence or presence of the drug. […] The lowest effective, killing concentration of PDMP over three cycles of growth is 1.0 μM.

For the next assay, the system named is P. falciparum schizonts. The assay can be described thus: Schizont maturation, merozoite invasion and ring viability in the presence of drug. The format is cell-based, Plasmodium falciparum. The note with it: for fate of schizonts greater than 40 h in the cycle: in the presence of 5 μM drug.
Assay [3] relates to tubovesicular membrane reticulum (TVM) of P. falciparum-infected erythrocytes. The assay is described as follows: Tubovesicular membrane (TVM) morphology by confocal microscopy with C5-DMB-ceramide. The format is cell-based, Plasmodium falciparum. As to conditions: 5 μM PPMP; C5 DMB-ceramide staining; 240 optical sections, 20 cells. The method, then: Schizont-stage parasites isolated over Percoll were allowed to invade in the presence of RPMI 1640 containing 10% human serum or in the presence of RPMI 1640 containing 10% human serum and 5 μM PPMP. 1×10^8 infected erythrocytes of the appropriate stage were incubated in 1 ml of RPMI 1640 supplemented with 2 mg/ml defatted BSA and 20 μM C5 -DMB-ceramide. Cells were washed and fixed as described in Example 5. Sequential micrographs were taken on a custom made laser confocal microscope at 400 nm intervals along the Z axis. Raw data were processed as described previously.

The next assay has as its system P. falciparum strain FCB. The assay can be described thus: Inhibition of intraerythrocytic growth in culture (Giemsa staining after 24 h). The note with it: 5 μM compound added to 0-12 h rings. The class given is cell-based, Plasmodium falciparum.
Source text: as §1

For another assay, the system named is DNA synthesis. The assay can be described thus: Effect on DNA synthesis. The class given is cell-based.
The next assay deals with protein synthesis. The assay is described as follows: Effect on protein synthesis. The class given is cell-based.

Turning to `CCCCCCCCCC(=O)N[C@@H](CN1CCOCC1)[C@H](O)c1ccccc1` (relative stereo) [dl-erythro-PDMP], the “effect on sphingomyelin synthase enzyme activity” value in assay [1] is given as “no effect”. In addition, the “[%] inhibition of sphingomyelin biosynthetic activity” value in assay [1] (infected erythrocytes) is listed as 3%.

Consider `CCCCCCCCCCCCCCCC(=O)N[C@H](CN1CCOCC1)[C@H](O)c1ccccc1` (relative stereo) [PPMP, dl-threo-1-phenyl-2-palmitoylamino-3-morpholino-1-propanol], for which, in assay [1] (infected erythrocytes), the “[%] inhibition of sphingomyelin biosynthetic activity” value turned out to be 36%. The “total cellular sphingomyelin synthase activity inhibited” value in assay [1] (500 μM PPMP, infected erythrocytes) is reported as 80-90%. The “change of sphingomyelin synthase activity” value in assay [1] (0.05-0.5 μM PPMP, infected erythrocytes) was “initial, rapid decrease”. Also, in assay [1] (1-5 μM PPMP, infected erythrocytes), the “average inhibition of sphingomyelin synthase activity” value came to 35%. The “concentration at which the sensitive pool of sphingomyelin synthase activity is completely inhibited” value in assay [1] (infected erythrocytes) was 1 to 5 µM. Also, the “inhibition of sphingomyelin biosynthesis at 5 μM PPMP [%]” value in assay [1] (intact cells, 5 μM PPMP) is 35%; in assay [2] (hypotonic lysates), 33%; in assay [2] (pellet of lysate (10^4 xG)), 30%; in assay [2] (supernatant of lysate (10^4 xG)), 3%. The “effect on development of trophozoite stage parasites” value in the assay on P. falciparum is listed as “blocks”. Also, the “relative efficacy in long term growth inhibition” value in the assay on P. falciparum was “more effective than PDMP”. In addition, the “effect on rings in their first cycle growth” value with P. falciparum (5 μM drug) is “completely inhibits”. Besides, the “development through the first cycle” value with P. falciparum (concentrations as low as 0.05 μM) is reported as “do not stop development through the first cycle”. Further, the “effect on schizont maturation or merozoite invasion into erythrocytes” value in the assay on P. falciparum schizonts (5 μM PPMP) was “not to block”. Also, in the assay with P. falciparum schizonts, the “fate of schizonts greater than 40 h in the cycle” value is “mature and rupture”. In addition, the “development of rings after being washed free of the drug” value in the assay on P. falciparum schizonts (rings formed in 5 μM PPMP) is on record as “developed normally”. The “TVM morphology of rings formed in the presence of drug” value in assay [3] was “markedly devoid of tubular connections”.

Consider `CN(C)CCCN1c2ccccc2CCc2ccccc21` [imipramine], for which the “effect on sphingomyelin synthase enzyme activity” value in assay [1] is recorded as “no effect”. Also, the “[%] inhibition of sphingomyelin biosynthetic activity” value in assay [1] (infected erythrocytes) came to 0%.

As to `CCCCCCCCCCCCCCCCCCN` [stearylamine], the “effect on sphingomyelin synthase enzyme activity” value in assay [1] is listed as “no effect”. Moreover, the “[%] inhibition of sphingomyelin biosynthetic activity” value in assay [1] (infected erythrocytes) was found to be 0%.

Consider `CCCCCCCCCCCCCCC[C@H](O)[C@@H](N)CO` (racemic) [dl-dihydrosphingosine], for which the “effect on sphingomyelin synthase enzyme activity” value in assay [1] is listed as “no effect”. The “[%] inhibition of sphingomyelin biosynthetic activity” value in assay [1] (infected erythrocytes) turned out to be 4%. For the same compound, the “[%] inhibition of growth” value in the assay with P. falciparum strain FCB is 8%.

Regarding `CCCCCCCCCC(=O)N[C@H](CN1CCOCC1)[C@H](O)c1ccccc1` (relative stereo) [PDMP, dl-threo-1-phenyl-2-decanoylamino-3-morpholino-1-propanol], the “[%] inhibition of sphingomyelin biosynthetic activity” value in assay [1] (infected erythrocytes) came to 31%. Besides, the “inhibition of DNA synthesis” value in the assay with DNA synthesis was “not inhibitory”. Also, in the assay with protein synthesis, the “inhibition of protein synthesis” value is “not inhibitory”. In the assay on P. falciparum schizonts, the “fate of schizonts greater than 40 h in the cycle” value is “mature and rupture”.

Turning to `CCCCCCCCCCCCC/C=C/[C@@H](O)[C@@H](N)CO` [sphingosine], in assay [1], the “effect on sphingomyelin synthase enzyme activity” value is listed as “no effect”. The “[%] inhibition of sphingomyelin biosynthetic activity” value in assay [1] (infected erythrocytes) is on record as 0%.

On to `CCN(CC)CCO[C@H]1CC[C@@]2(C)C(=CC[C@@H]3[C@@H]2CC[C@]2(C)C(=O)CC[C@@H]32)C1` [U 18666 A], for which, in assay [1], the “effect on sphingomyelin synthase enzyme activity” value was “no effect”. For the same compound, the “[%] inhibition of sphingomyelin biosynthetic activity” value in assay [1] (infected erythrocytes) stood at 0%.

Values taken from patent US5976781A, “Determining plasmodium in blood by sphingomyelin synthase activity” (The Board of Trustees of the Leland Stanford Junior …, priority 1995, dated 1999).
